The source of these data is patent US8492570B2, “2-substituted estra-1,3,5(10)-triene-3-yl sulfamate with an anti-tumor action” (Sterix Limited, priority 2003, dated 2013).

Usually IC50 stands for the concentration that gives 50% inhibition.

The target of assay [1] is T1, microtubular protein (tubulin) purified from pig brains (Sus scrofa, UniProt P02550+P02554).
T1 construct: microtubular protein was purified from pig brains via cyclic assembling/disassembling; from tissue; host or cells: pig brain
The assay is described as follows: Inhibition of tubulin polymerization (turbidimetry at 340 nm). The format is biochemical. The settings on record: pig brain microtubular protein 1 mg/ml, 0.25 mmol GTP, 37° C.
Protocol: The in-vitro testing of the tubulin polymerization influence was performed as follows:
The buffer system used had the following composition: 20 mmol of PIPES (1,4-piperazine-diethane-sulfonic acid, pKa 6.8), 80 mmol of NaCl, 0.5 mmol of MgCl2, 1 mmol of EGTA (ethylene glycol-bis-(2-aminoethylene)-tetraacetic acid).
For active ingredient testing, protein concentrations of 1 mg/ml (about 10^−5 mmol of tubulin) were used. […] The assembling of microtubuli was carried out in the presence of 0.25 mmol of GTP and heating the samples to 37° C.
The microtubulus formation was examined by means of turbidimetry at a wavelength of 340 nm.
Testing of the active ingredients was carried out by their addition at the beginning of the assembling or in the state of equilibrium. Deviations of turbidity curves from the control characterize its activity. To monitor action and to evaluate the measured turbidity values, a transmission electron microscopic study (CEM 902 A, Zeiss/Oberkochen) of the assemblates was always performed after negative staining with 1% aqueous uranyl acetate.

The subject of assay [2] is MaTu/ADR multidrug-resistant human breast tumor cells. The assay is described as follows: Inhibition of cell proliferation, crystal violet staining. The format is cell-based. The following applies: 4 days incubation. On the procedure: (§1) Cell cultures of the following cell lines were prepared in 96-well microtiter plates: • 1. MaTu/ADR multidrug-resistant human breast tumor cells (Epo GmbH Berlin), 5000 cells/well. • 2. HCT116 human colon tumor cells (ATCC CCL-247), 3000 cells/well. • 3. NCl-H460 human non-small-cell lung cancer cells (ATCC HTB-177), 3000 cells/well. • 4. DU145 human prostate tumor cells (ATCC HTB-81), 5000 cells/well. • 5. HMVEC human primary dermal microvascular endothelial cells, 7500 cells/well.
(§2) After 24 hours of incubation in a cell culture incubator at 37° C., the cells of a microtiter plate were stained with crystal violet (reference plate), while the cells in the test plates were incubated for 4 days with the test substances in the concentrations […], as well as with the DMSO solvent by itself (solvent control). The cell proliferation was determined by staining cells with crystal violet. The extinction of the crystal violet was determined by photometry at 595 nm. The percentage of the change in the cell number in the test plates was determined after the extinction values were normalized to the reference plate (0%) and to the solvent control (100%). The semi-maximal inhibition of the cell growth (IC50) was determined as the substance concentration, in which 50% of the cell number of the solvent controls were present.

Assay [3] concerns HCT116 human colon tumor cells. The assay is described as above. The format is cell-based. The settings on record: HCT116, 4 days incubation. On the procedure:
as §1, §2

In assay [4] the test system is DU145 human prostate tumor cells. Described as above. The format is cell-based. The following applies: DU145, 4 days incubation. On the procedure:
as §1, §2

For assay [5], the system named is HMVEC human primary dermal microvascular endothelial cells. Described as above. The format is cell-based. The settings on record: 4 days incubation. As to the method: as §1, §2
Assay [6] has as its system NCl-H460 human non-small-cell lung cancer cells. The description is as above. The following applies: NCl-H460, 4 days incubation. The format is cell-based. As to the method:
as §1, §2

T1 sequence (P02550 whole entry): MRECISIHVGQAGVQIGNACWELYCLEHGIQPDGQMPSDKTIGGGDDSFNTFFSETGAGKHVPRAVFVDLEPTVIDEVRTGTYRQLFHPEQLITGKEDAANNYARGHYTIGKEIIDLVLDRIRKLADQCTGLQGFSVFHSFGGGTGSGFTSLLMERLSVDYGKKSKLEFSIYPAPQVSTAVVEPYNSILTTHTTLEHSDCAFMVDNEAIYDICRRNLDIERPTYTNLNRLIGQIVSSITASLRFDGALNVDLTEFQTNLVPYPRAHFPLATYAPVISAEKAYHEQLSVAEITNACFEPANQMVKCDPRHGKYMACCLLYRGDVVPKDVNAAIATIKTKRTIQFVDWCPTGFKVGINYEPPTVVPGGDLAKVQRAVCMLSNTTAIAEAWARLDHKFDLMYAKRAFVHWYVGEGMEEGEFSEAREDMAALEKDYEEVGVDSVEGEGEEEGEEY
T1 sequence (P02554 whole entry): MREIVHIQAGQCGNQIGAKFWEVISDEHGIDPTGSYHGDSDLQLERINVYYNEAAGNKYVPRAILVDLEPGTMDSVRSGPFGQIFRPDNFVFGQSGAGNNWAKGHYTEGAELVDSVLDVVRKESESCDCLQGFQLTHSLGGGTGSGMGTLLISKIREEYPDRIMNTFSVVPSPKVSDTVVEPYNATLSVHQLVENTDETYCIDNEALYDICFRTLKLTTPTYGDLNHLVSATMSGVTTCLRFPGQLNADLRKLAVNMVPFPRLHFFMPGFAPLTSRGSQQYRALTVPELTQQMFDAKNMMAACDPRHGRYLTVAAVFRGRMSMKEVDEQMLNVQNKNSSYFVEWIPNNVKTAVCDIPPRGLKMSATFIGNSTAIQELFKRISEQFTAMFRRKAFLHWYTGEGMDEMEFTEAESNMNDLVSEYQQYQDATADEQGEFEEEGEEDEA

Regarding `COc1cc2c(cc1OS(N)(=O)=O)CC[C@@H]1[C@@H]2CC[C@]2(C)[C@@H](C(F)F)CC[C@@H]12` [(9), 17β-Difluoromethyl-2-methoxy-estra-1,3,5(10)-trien-3-yl Sulfamate], the IC50 in assay [1] came to 1.5 µM; in assay [2] (Homo sapiens, 96 h), 0.11 µM; in assay [3] (Homo sapiens, HCT-116, 96 h) it was 0.3 µM; in assay [4] (Homo sapiens, DU-145, 96 h) it was 0.4 µM; in assay [5] (Homo sapiens, 96 h), 0.2 µM; in assay [6] (Homo sapiens, 96 h), 0.22 µM.
`C=C1CC[C@H]2[C@@H]3CCc4cc(OS(N)(=O)=O)c(OC)cc4[C@H]3CC[C@]12C` [(4), 2-Methoxy-17(20)-methylene-estra-1,3,5(10)-trien-3-yl Sulfamate]: the IC50 was 1.4 µM in assay [1]; below 0.1 µM in assay [2] (Homo sapiens, 96 h); 0.18 µM in assay [3] (Homo sapiens, HCT-116, 96 h); 0.18 µM in assay [4] (Homo sapiens, DU-145, 96 h); 0.16 µM in assay [5] (Homo sapiens, 96 h); 0.18 µM in assay [6] (Homo sapiens, 96 h).
Consider `COc1cc2c(cc1OS(N)(=O)=O)CC[C@@H]1[C@@H]2CC[C@]2(C)[C@@H](CO)CC[C@@H]12` [(11), 17β-Hydroxymethyl-2-methoxy-estra-1,3,5(10)-trien-3-yl Sulfamate], for which the IC50 is below 0.1 µM in assay [2] (Homo sapiens, 96 h); 0.18 µM in assay [3] (Homo sapiens, HCT-116, 96 h); 0.2 µM in assay [4] (Homo sapiens, DU-145, 96 h); below 0.1 µM in assay [5] (Homo sapiens, 96 h); 0.18 µM in assay [6] (Homo sapiens, 96 h).
`CCc1cc2c(cc1OS(N)(=O)=O)CC[C@@H]1[C@@H]2CC[C@]2(C)[C@@H](OC)CC[C@@H]12` [(3), 2-Ethyl-17β-methoxy-estra-1,3,5(10)-trien-3-yl sulfamate]: the IC50 in assay [1] stood at 1.4 µM; in assay [2] (Homo sapiens, 96 h), 0.12 µM; in assay [3] (Homo sapiens, HCT-116, 96 h) it was 0.18 µM; in assay [4] (Homo sapiens, DU-145, 96 h) it was 0.18 µM; in assay [5] (Homo sapiens, 96 h), 0.16 µM; in assay [6] (Homo sapiens, 96 h), 0.18 µM.
Turning to `COc1cc2c(cc1OS(N)(=O)=O)CC[C@@H]1[C@@H]2CC[C@]2(C)[C@@H](C)CC[C@@H]12` [(5), 2-methoxy-17β-methyl-estra-1,3,5(10)-trien-3-yl sulfamate], the IC50 in assay [1] came to 1.3 µM. In other words, the single-digit micromolar range.
For the compound `COc1cc2c(cc1O)CC[C@@H]1[C@@H]2CC[C@]2(C)[C@@H](O)CC[C@@H]12` [2-Methoxyestradiol, reference compound], the IC50 came to 2.7 µM in assay [1]; 0.2 µM in assay [2]; 1.1 µM in assay [3]; 1.9 µM in assay [4]; 2.2 µM in assay [5]; 1.8 µM in assay [6].
On to `COc1cc2c(cc1OS(N)(=O)=O)CC[C@@H]1[C@@H]2CC[C@]2(C)C(=C(F)F)CC[C@@H]12` [(8), 17(20)-Difluoromethylene-2-methoxy-estra-1,3,5(10)-trien-3-yl Sulfamate], for which the IC50 in assay [1] was found to be 1.1 µM; in assay [2] (Homo sapiens, 96 h), 0.17 µM; in assay [3] (Homo sapiens, HCT-116, 96 h), 0.3 µM; in assay [4] (Homo sapiens, DU-145, 96 h), 0.5 µM; in assay [5] (Homo sapiens, 96 h), 0.2 µM; in assay [6] (Homo sapiens, 96 h) it was 0.22 µM.
Regarding `CC(=O)O[C@H]1C(=O)[C@@]2(C)[C@H]([C@H](OC(=O)c3ccccc3)[C@]3(O)C[C@H](OC(=O)[C@H](O)[C@@H](NC(=O)c4ccccc4)c4ccccc4)C(C)=C1C3(C)C)[C@]1(OC(C)=O)CO[C@@H]1C[C@@H]2O` [Taxol, reference compound], the IC50 in assay [2] (Homo sapiens, 96 h) was 0.4 µM; in assay [3] (Homo sapiens, HCT-116, 96 h) it was 0.004 µM; in assay [4] (Homo sapiens, DU-145, 96 h), 0.004 µM; in assay [5] (Homo sapiens, 96 h) it was 0.004 µM; in assay [6] (Homo sapiens, 96 h), 0.004 µM.
For the compound `COc1cc2c(cc1OS(N)(=O)=O)CC[C@@H]1[C@@H]2CC[C@]2(C)CCC[C@@H]12` [(1), 2-Methoxy-estra-1,3,5(10)-trien-3-yl Sulfamate], the IC50 in assay [1] is 0.67 µM; in assay [2] (Homo sapiens, 96 h), 0.11 µM; in assay [3] (Homo sapiens, HCT-116, 96 h), 0.4 µM; in assay [4] (Homo sapiens, DU-145, 96 h), 0.5 µM; in assay [5] (Homo sapiens, 96 h), below 0.1 µM; in assay [6] (Homo sapiens, 96 h), 0.4 µM.
With `C=C1CC[C@H]2[C@@H]3CC(=NO)c4cc(OS(N)(=O)=O)c(OC)cc4[C@H]3CC[C@]12C` [(7), 2-Methoxy-17(20)-methylene-6-oximino-estra-1,3,5(10)-trien-3-yl Sulfamate], the IC50 in assay [2] came to 0.13 µM; in assay [3], 0.5 µM; in assay [4] it was 0.55 µM; in assay [5], 0.13 µM; in assay [6] it was 0.5 µM.
